The subject of the series is blood coagulation components. The conditions noted are these: dog, in vivo. As to the method:
The following parameters and endpoints were evaluated in this study: mortality, body weight, physical, clinical pathology parameters (hematology and coagulation), […], and bioanalytical parameters.
The vehicle and test article were administered via intravenous (IV) infusion once on Day 1 for 135 minutes (initiated 30 minutes prior to starting the Cardiopulmonary Bypass (CPB) and continuing for 105 minutes of CPB). Group 2 animals received a […] IV bolus dose immediately prior to the start of IV infusion. Group 3, 4, and 5 animals received a 10 mg/kg IV bolus dose prior to the start of the IV infusion; with the CPB machine primed with test article at 10 μg/mL.
Infusion of the Compound 1 was started 30 minutes prior to the animal being placed on the CPB pump. The CPB pump was primed with 0.9% saline.
Venous and arterial sheaths were flushed with the Compound 1 at a concentration of 10 μg/mL. An IV bolus dose of the test article was administered immediately prior to the start of the infusion. Infusion of Compound 1 was started 30 minutes prior to the animal being placed on the CPB pump. The CPB […] was primed with 10 μg/mL of the Compound 1 prior to initiation of the CPB pump.
An IV bolus dose of the Compound 1 was administered immediately prior to the start of the infusion. […]

Regarding `C[C@@H](NC(=O)N1C(=O)[C@H](Cc2ccnc(N)c2)[C@H]1C(=O)O)C1CCCCC1` [Compound 1, (2S,3R)-3-((2-aminopyridin-4-yl)methyl)-1-(((R)-1-cyclohexylethyl)carbamoyl)-4-oxoazetidine-2-carboxylic acid], the morbidity or mortality entry was “not associated with any increases in morbidity or mortality” and the “mortality (survival to study termination)” value is given as “All animals survived to study termination”.

Source of the values: patent US20210261524A1, “THERAPEUTIC COMPOUNDS AND COMPOSITIONS” (Exithera Pharmaceuticals, Inc., priority 2018, published 2021).
